These results are taken from patent US11891374B2, “Derivatized benzimidazole compounds, their salts, their complexes, their pharmaceutical compositions and methods for using them for antigeriatric actions” (priority 2020, dated 2024).

Test [1] concerns imidazoline receptors of all subtypes. The settings on record: cited from earlier work.
Another test has as its system Drosophila fruit flies. The settings on record: in vivo.

Regarding `N=C(N)NCCCCN` [Agmatine, N-(4-aminobutyl)guanidine], the “concentration range of binding to imidazoline receptors” value in test [1] was 0.5 to 5 mM.
With `Cc1cc(C)c2c(c1)nc(Cn1c3ccccc3c(=O)c3ccccc31)n2C` [XVg], in the test on Drosophila fruit flies, the “MLS (day) Females” value is 67 ± 9 days, the “MLS (day) Males” value was 66 ± 9 days, the “extension of lifespan / MLS versus control” value is on record as roughly 3 fold and the “lifespan of Drosophila extended to” value is given as 70 days.
